# Test results published in US20140094424A1, “MICROBICIDAL COMPOSITIONS AND METHODS OF PRODUCTION USE THEREOF” (priority 2011, published 2014).
# How the values were obtained:
# [1] = Dissolution of antibiotic in Wash NEXT reagent; type: physicochemical; details: 1% in Wash NEXT base pool
# [2] = system: creatinine biosensor (creatinine amidohydrolase, creatinine amidinohydrolase and sarcosine oxidase); experiment: Effect on enzymatic activity of a creatinine biosensor (rate of O2% decrease); type: biochemical; details: 40 mM propionate, FIG. 2
# Description: In FIG. 1, the effects of various concentrations of gentamicin on the enzymatic activity of a creatinine biosensor (comprising the three enzymes creatinine amidohydrolase, creatinine amidinohydrolase and sarcosine oxidase) were determined. In FIG. 2, the effects of various concentrations of propionate on the enzymatic activity of a creatinine biosensor (comprising three enzymes) were determined.
# In both instances, a decreasing rate of O2% is an indicator of enzyme activity; the faster the rate of O2% decrease, the higher enzymatic activity is.
Compound,dissolution in the Wash reagent [1],effect on enzymatic activity of the three enzymes in the creatinine biosensor [2]
CO[C@@H]1[C@@H](OC(N)=O)[C@@H](O)[C@H](Oc2ccc3c(O)c(NC(=O)c4ccc(O)c(CC=C(C)C)c4)c(=O)oc3c2C)OC1(C)C [novobiocin],neither antibiotic completely dissolved in the Wash reagent,
CCC(=O)O [propionate],,did not substantially affect the enzymatic activity
